Earlier results on 3 molecules are cited in patent US9950023B1, “Composition for the treatment of acne” (Parham Tabibian, MD, Inc., priority 2014, dated 2018).

Data set [1] deals with biofilm-associated P. acnes. As to conditions: in vitro; concentrations as given in the label.
In the next data set the test system is interleukin-8 (IL-8). As to conditions: dose-dependent manner.
A further data set concerns P. acnes biofilm. Conditions: clinical tests, trans Resveratrol extracts.

With `Oc1cc(Cl)ccc1Oc1ccc(Cl)cc1Cl` [0.1% triclosan, triclosan], in data set [1], the reducing biofilm mass entry was “effective”.

For the molecule `NC(=O)c1cccnc1` [Nicotinamide], the “interleukin-8 (IL-8) production” value in the data set on interleukin-8 (IL-8) is on record as “decreasing interleukin-8 (IL-8) production in a dose-dependent manner”.

On to `Oc1ccc(C=Cc2cc(O)cc(O)c2)cc1` [Resveratrol], for which the “inhibition of P. acnes biofilm formation” value with P. acnes biofilm is listed as 99.2%.
